In US5648336A (University of Colorado, priority 1994, dated 1997):
Read-outs that look alike come from different tables or passages of the source. Square brackets hold non-standard residues; d marks the D form. Peptide text beside a SMILES is read from it. * marks the point of attachment. Adamantane1carbonyl = O=C(C12CC3CC(CC(C3)C1)C2)*; Oic = O=C(O)[C@@H]1C[C@@H]2CCCC[C@@H]2N1; dIgl = N[C@@H](C(=O)O)C1Cc2ccccc2C1; Hyp = O=C(O)[C@@H]1C[C@@H](O)CN1

What was measured:
B2 receptors = B2 receptors (Canis lupus familiaris, UniProt Q9BDQ4); settings: anaesthetized dog, i.v. infusion, BK challenge, n=3
B2 receptors, sequence (Q9BDQ4 1-392): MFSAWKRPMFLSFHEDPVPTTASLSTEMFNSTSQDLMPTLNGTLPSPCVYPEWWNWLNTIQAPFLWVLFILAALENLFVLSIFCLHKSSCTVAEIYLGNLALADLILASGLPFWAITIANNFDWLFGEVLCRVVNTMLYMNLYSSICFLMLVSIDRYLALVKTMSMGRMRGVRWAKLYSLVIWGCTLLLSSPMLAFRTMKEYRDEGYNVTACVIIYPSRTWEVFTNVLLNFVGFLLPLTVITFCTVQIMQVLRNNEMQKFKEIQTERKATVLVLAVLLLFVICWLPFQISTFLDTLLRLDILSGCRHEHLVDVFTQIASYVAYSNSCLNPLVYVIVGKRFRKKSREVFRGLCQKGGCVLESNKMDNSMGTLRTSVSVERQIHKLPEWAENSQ
Protocol: Mongrel dogs of either sex, weight range 10-15 kg were used. These were anaesthetized with pentobarbital, 30 mg/kg i.v., and catheters were placed in one femoral artery and both femoral veins for the recording of blood pressure and infusion and injection of compounds.

B1 receptors [1] = biological target: T1, B1 receptors (Oryctolagus cuniculus, UniProt P48748); assay: B1 receptor bioassay, rabbit aorta strips contracted with des-Arg9-BK; format: cell-based; settings: 50% reduction of sustained contraction to 10^-7 M des-Arg9-BK; read-out: Rabbit Aorta p IC50 B1 receptors (converted)
T1 construct: The thorax was opened and the thoracic aorta carefully removed; from tissue; host or cells: rabbit thoracic aorta spiral strips
T1 sequence (P48748 1-352): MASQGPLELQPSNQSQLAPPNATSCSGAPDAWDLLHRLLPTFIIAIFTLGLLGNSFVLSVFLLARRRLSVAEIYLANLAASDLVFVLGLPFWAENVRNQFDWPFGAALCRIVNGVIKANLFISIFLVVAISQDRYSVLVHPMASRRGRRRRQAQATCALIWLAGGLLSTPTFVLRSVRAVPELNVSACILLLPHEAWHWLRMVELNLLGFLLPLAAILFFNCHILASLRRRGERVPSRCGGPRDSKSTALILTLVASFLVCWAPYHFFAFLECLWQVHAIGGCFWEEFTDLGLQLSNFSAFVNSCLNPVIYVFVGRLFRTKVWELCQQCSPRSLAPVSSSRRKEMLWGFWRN
Protocol: Male New Zealand white rabbits, weight range 2-3 kg, were killed by an overdose of pentobarbital i.v. The thorax was opened and the thoracic aorta carefully removed. […] The tissues were placed under 1 gm isometric tension and allowed to equilibrate for 1H. At time 1h, a concentration-effect curve was constructed to the selective B1 agonist des-Arg^9 -BK. This was repeated at time 3 hours. […] Once the contraction was sustained, the compound to be assayed was applied to the tissue bath in a cumulative manner. The concentration of the compound which produced a 50% reduction of the sustained contraction was calculated. The negative logarithm of this concentration was calculated and expressed as the […].

guinea pig ileum = tested on: guinea pig ileum
Excerpt: (§1) A change of one unit of pA2 value represents an order of magnitude change in potency.
(§2) On isolated smooth muscles, agonist potency is given as percent of BK potency; antagonist potency is given as pA2, and is underlined. In blood pressure assays, the number is the dose of peptide in micrograms that causes 50% reduction in the effect of BK intraarterially administered as a bolus mixture in a 500 g male rat; Ag indicates unquantitated agonist activity; Ant indicates unquantitated antagonist activity.

isolated rat uterus = tested on: isolated rat uterus
Excerpt: as §1, §2

B1 receptors [2] = biological target: T2, B1 receptors (Canis lupus familiaris, UniProt Q9BDQ5); assay: Dog blood pressure, hypotensive response to des-Arg9-BK; format: in vivo; settings: anaesthetized dog, i.v. infusion, des-Arg9-BK challenge, n=3
T2 construct: Mongrel dogs of either sex, weight range 10-15 kg were used; from tissue; host or cells: anaesthetized mongrel dog, whole animal
T2 sequence (Q9BDQ5 1-350): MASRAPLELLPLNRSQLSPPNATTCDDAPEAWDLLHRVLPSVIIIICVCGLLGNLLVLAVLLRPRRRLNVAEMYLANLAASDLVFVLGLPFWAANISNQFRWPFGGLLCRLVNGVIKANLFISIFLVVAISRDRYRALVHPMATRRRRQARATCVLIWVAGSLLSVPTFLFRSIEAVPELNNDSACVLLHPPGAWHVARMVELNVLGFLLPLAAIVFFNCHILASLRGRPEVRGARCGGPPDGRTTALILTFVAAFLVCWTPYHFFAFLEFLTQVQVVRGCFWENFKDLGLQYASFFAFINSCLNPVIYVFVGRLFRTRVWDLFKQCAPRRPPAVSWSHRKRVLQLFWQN

[3] = tested on: hypotensive action of bradykinin; assay: Blood pressure in the anesthetized rat: inhibition of hypotensive action of bradykinin; format: in vivo; settings: intraarterial bolus mixture with BK, 500 g male rat; indicated approximately
Excerpt: Potencies for the antagonists in this assay are not reported precisely, but rather are indicated approximately.
as §2

Human B2 receptors = biological target: T3, Human B2 receptors (Homo sapiens, UniProt P30411); assay: Human B2 binding, cloned receptor in CHO cell membranes, 3H-bradykinin; settings: CHO clone S34f membranes, 0.3 nM 3H-Bradykinin, room temperature 45 min; read-out: Human Receptor Clone B2 receptor binding (Ki) (converted)
T3 construct: expressed in transfected cells; membranes used
T3 sequence (P30411 1-364 isoform P30411-2): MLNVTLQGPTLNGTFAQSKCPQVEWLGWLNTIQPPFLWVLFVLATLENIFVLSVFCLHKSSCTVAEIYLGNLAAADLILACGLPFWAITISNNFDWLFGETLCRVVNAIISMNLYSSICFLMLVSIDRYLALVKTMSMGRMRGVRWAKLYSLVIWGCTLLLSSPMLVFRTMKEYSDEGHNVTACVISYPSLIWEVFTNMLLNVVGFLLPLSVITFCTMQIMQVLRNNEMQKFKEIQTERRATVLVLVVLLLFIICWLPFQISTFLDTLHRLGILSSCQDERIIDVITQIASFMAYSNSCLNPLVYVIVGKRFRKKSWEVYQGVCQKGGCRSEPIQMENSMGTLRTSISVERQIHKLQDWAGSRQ
Excerpt: Human B2 receptors were cloned and expressed in Chinese hamster ovary cells. RNA was isolated from human lung fibroblasts (CCD-16 LU obtained from the ATCC) using the method of Chirgwin et al (Biochemistry 18:5294 (1979)). The RNA was transcribed into cDNA using MMLV reverse transcriptase, the primer […] and the procedure of Maniatis (Molecular Cloning Cold Spring Harbor Laboratory (1982)). The human B2 receptor cDNA was selectively amplified using nested PCR. The first round PCR used the two primers […] and […] and Taq DNA polymerase (Promega). Twenty-five rounds of PCR were done using the following conditions: 94° C., 1 minute for denaturation, 50° C., 1 minute for annealing followed by 72° C., 3 minutes for extension. Excess primers were removed with a Centricon 30 miniconcentrator. A portion of this first round reaction was used as a template in a second round of PCR using the following primers […] and […]. The number of rounds of PCR and the conditions were the same as those used for the first round. The DNA obtained after this second round was digested with the restriction enzymes Hind III and Xba I using standard methodology. Cesium chloride-purified pRc/CMV (Invitrogen) was also digested with Hind III and Xba I using standard methodology. The products of the two digests were resolved on a 1% low melt agarose gel. The human B2 receptor DNA (approximately 1.1 kb) and the pRc/CMV DNA (approximately 5.5 kb) were excised from the gel. The gel slices containing these DNAs were heated at 65° C. and aliquots combined in a reaction containing T4 DNA ligase. The reaction was incubated overnight at 15° C.
An aliquot of this reaction was used to transform frozen competent E. coli DH5α cells (GibcoBRL). Transformants containing the human B2 receptor DNA were selected on LB+amp plates. One of the transformants was selected and the sequence of the human B2 receptor DNA insert determined using the Sequenase enzyme (United States Biochemical) according to the manufacturer's instructions. This sequence was compared to the sequence of Hess et al (Biochemical and Biophysical Research Communications 184:260 1992)). […] The human BK2 receptor-pRc/CMV plasmid was transfected into CHO-k1 cells using the Lipofectamine reagent (GibcoBRL).
Cells containing the receptor were grown to confluence and harvested by scraping into PBS and homogenized. Membranes were prepared by centrifugation in 25 mM TES pH6.8 containing 1 mM 1.10 Phenanthroline. The final pellet was resuspended in assay buffer (25 mM TES, 1 mM 1.10 Phenanthroline, 1 mM DTT, […] Captopril, 0.1% BSA pH=6.8) and frozen. […] Incubation was carried out at room temperature for 45 min. The assay was terminated by filtration through a polyethylenimine soaked G-A filter. Radioactivity was measured on a Wallac 1450 MicroBeta LSC.
The Kd for the receptor was determined by kinetic analysis of on and off rates utilizing a single exponential decay off rate. Ki 's for compounds were calculated using the following equation: Ki =IC50 /(1+[L]/Kd), where L=free ligand concentration.

[4] = guinea pig ileum, vs double ED50 dose of bradykinin

Row | Molecule | Mean ED50, B2 receptor-mediated hypotensive response (B2 receptors) | IC50 (B1 receptors [1]) | Ileum Activity, antagonist potency given as pA2 (guinea pig ileum) | Uterus Activity, antagonist potency given as pA2 (isolated rat uterus) | Mean ED50, B1 receptor-mediated hypotensive response (B1 receptors [2]) | Ileum Activity, antagonist potency given as pA2 (guinea pig ileum; [4]) | Uterus Activity, agonist potency given as percent of BK potency (isolated rat uterus; isolated rat uterus) | Blood Pressure: dose of peptide that causes 50% reduction in the effect of BK [3] | Ki (Human B2 receptors)
1 | N=C(N)NCCC[C@@H](N)C(=O)N[C@@H](CCCNC(=N)N)C(=O)N1CCC[C@H]1C(=O)N1C[C@H](O)C[C@H]1C(=O)NCC(=O)N[C@H](C(=O)N[C@@H](CO)C(=O)N[C@@H](C(=O)N1[C@H](C(=O)N[C@@H](CCCNC(=N)N)C(=O)O)C[C@@H]2CCCC[C@@H]21)C1Cc2ccccc2C1)C1Cc2ccccc2C1 [Compound 1, DArg-Arg-Pro-Hyp-Gly-Iglb-Ser-DIglb-O ic-Arg] | 0.03 mg/kg/min | 251 nM | 7.9 | 8.5 | 0.24 mg/kg/min |  |  |  | 
2 | N=C(N)NCCC[C@@H](N)C(=O)N[C@@H](CCCNC(=N)N)C(=O)N1CCC[C@H]1C(=O)N1C[C@H](O)C[C@H]1C(=O)NCC(=O)N[C@@H](Cc1cccs1)C(=O)N[C@@H](CO)C(=O)N[C@@H](C(=O)N1[C@H](C(=O)N[C@@H](CCCNC(=N)N)C(=O)O)C[C@@H]2CCCC[C@@H]21)C1Cc2ccccc2C1 [Compound 7, DArg-Arg-Pro-Hyp-Gly-Thi-Ser-DIglb-Oic-Arg] | 0.17 mg/kg/min | 141 nM | 7.4 |  | 0.35 mg/kg/min |  |  |  | 
3 | N=C(N)NCCC[C@@H](N)C(=O)N[C@@H](CCCNC(=N)N)C(=O)N1CCC[C@H]1C(=O)N1C[C@H](O)C[C@H]1C(=O)NCC(=O)N[C@@H](Cc1cccs1)C(=O)N[C@@H](CO)C(=O)N[C@@H](C(=O)N(CC(=O)N[C@@H](CCCNC(=N)N)C(=O)O)C1Cc2ccccc2C1)C1Cc2ccccc2C1 [Compound 28, DArg-Arg-Pro-Hyp-Gly-Thi-Ser-DIgl-Nigb-Arg] |  |  |  |  |  | 6.5 | 48.6% | 0.05 micrograms | 
4 | N=C(N)NCCC[C@H](NC(=O)[C@@H]1C[C@@H]2CCCC[C@@H]2N1C(=O)[C@H](NC(=O)[C@H](CO)NC(=O)[C@H](Cc1ccccc1)NC(=O)CNC(=O)[C@@H]1C[C@@H](O)CN1C(=O)[C@@H]1CCCN1C(=O)[C@H](CCCNC(=N)N)NC(=O)[C@@H](CCCNC(=N)N)NC(=O)C12CC3CC(CC(C3)C1)C2)C1Cc2ccccc2C1)C(=O)O [Compound 53, Aca-DArg-Arg-Pro-Hyp-Gly-Phe-Ser-DIglb-Oic-Arg] (Adamantane1carbonyl-[dR]RP[Hyp]GFS[dIgl][Oic]R-OH) |  | 1260 nM | 7.4 | 8.2 |  |  |  |  | 0.0141 nM
5 | N=C(N)NCCC[C@H](NC(=O)[C@@H]1C[C@@H]2CCCC[C@@H]2N1C(=O)[C@H](NC(=O)[C@H](CO)NC(=O)[C@H](Cc1cccs1)NC(=O)CNC(=O)[C@@H]1C[C@@H](O)CN1C(=O)[C@@H]1CCCN1C(=O)[C@H](CCCNC(=N)N)NC(=O)[C@@H](CCCNC(=N)N)NC(=O)CC12CC3CC(CC(C3)C1)C2)C1Cc2ccccc2C1)C(=O)O [Compound 56, Aaa-DArg-Arg-Pro-Hyp-Gly-Thi-Ser-DIglb-Oic-Arg] |  | 692 nM | 7.8 | 7.7 |  |  |  |  | 0.398 nM
6 | COc1cc(C=CC(=O)N[C@H](CCCNC(=N)N)C(=O)N[C@@H](CCCNC(=N)N)C(=O)N2CCC[C@H]2C(=O)N2C[C@H](O)C[C@H]2C(=O)NCC(=O)N[C@@H](Cc2cccs2)C(=O)N[C@@H](CO)C(=O)N[C@@H](C(=O)N2[C@H](C(=O)N[C@@H](CCCNC(=N)N)C(=O)O)C[C@@H]3CCCC[C@@H]32)C2Cc3ccccc3C2)cc(OC)c1O [Compound 60, Sin-DArg-Arg-Pro-Hyp-Gly-Thi-Ser-DIglb-Oic-Arg] |  | 2090 nM | 7.3 | 8.3 |  |  |  |  | 0.0692 nM
7 | Aca-DArg-Arg-Pro-Hyp-Gly-Thi-Ser-DHigb-Oic-Arg [Compound 124] |  |  |  |  |  | 7.7 |  | 0 micrograms | 
8 | DArg-Arg-Pro-Hyp-Gly-Thi-Ser-DIglb-Dic-Arg [Compound 41] |  |  |  |  |  |  |  | 50 micrograms | 
